Test results published in patent US12617768B2, “Radiolabeled cannabinoid receptor 2 ligand” (HOFFMANN-LA ROCHE INC., priority 2018, dated 2026).

Target: T1, human CB1 receptors (Homo sapiens, UniProt P21554)
T1 construct: expressed in transfected cells; host or cells: stably transfected cells (cell line for CB1 not explicitly stated)
Assay: Radioligand competition binding of [^3H]CP55940, human CB1
Conditions: competition with [^3H]CP55940; cells recombinantly expressing the receptor
Protocol: Stably transfected cells or spleen tissue were homogenized in 15 mmol L-1 Hepes, 0.3 mmol L-1 EDTA, 1 mmol L-1 EGTA, 2 mmol L-1 MgCl2, complete EDTA-free protease inhibitor (Roche Applied Science, Rotkreuz, Switzerland), pH 7.4 using a glass potter and centrifugation at 47,800 g at 4° C. for 30 min. The pellet was then rehomogenized twice in the same buffer and centrifuged (47,800 g, 4° C., 30 min). The final pellet was then resuspended in 75 mmol L-1 Tris, 0.3 mmol L-1 EDTA, 1 mmol L-1 EGTA, 12.5 mmol L-1 MgCl2, 250 mmol L-1 sucrose, pH 7.4 at a protein concentration of 1 to 3 mg mL-1, aliquoted, frozen on dry ice and stored at −80° C.
For competition binding, membrane preparations were incubated either with 0.3 nM of [^3H]-CP55940 in the presence or absence of increasing concentrations of unlabeled (R^1═R^2═CH2CH3, R^3═CH2CH2CH2F) compound of formula (I) or with 1.5 nM compound of formula (I) ((R^1═R^2═CHTCH2T, R^3═CH2CH2CH2F)) and increasing amounts of membranes (2.5-80 μg) in the presence or absence of CP55940 (10 μM) for 60 min at 30° C. in a final volume of 0.2 mL of 50 mmol L-1 Tris-HCl, 5 mmol L-1 MgCl2, 2.5 mmol L-1 EGTA, 0.1% fatty acid-free BSA and 1% DMSO, pH 7.4, buffer, gently shaking. […] IC50 values and Hill slopes were determined by a four parameter logistic model using ActivityBase

T1 sequence (P21554 whole entry): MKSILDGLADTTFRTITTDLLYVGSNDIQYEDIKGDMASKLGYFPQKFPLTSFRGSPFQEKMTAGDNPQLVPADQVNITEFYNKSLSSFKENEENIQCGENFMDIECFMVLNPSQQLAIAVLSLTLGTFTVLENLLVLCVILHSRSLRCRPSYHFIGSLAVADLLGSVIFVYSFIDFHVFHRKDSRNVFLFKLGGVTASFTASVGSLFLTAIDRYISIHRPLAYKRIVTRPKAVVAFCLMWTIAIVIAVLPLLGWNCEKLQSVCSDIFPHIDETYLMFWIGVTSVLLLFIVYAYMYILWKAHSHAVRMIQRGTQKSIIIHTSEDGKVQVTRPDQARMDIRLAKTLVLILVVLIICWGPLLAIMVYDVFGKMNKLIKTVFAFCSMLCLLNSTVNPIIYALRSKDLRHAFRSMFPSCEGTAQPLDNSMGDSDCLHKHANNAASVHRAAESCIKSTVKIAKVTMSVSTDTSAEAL

CCC(CC)(NC(=O)c1ccc(N2CC(OC)C2)c(OC[C@H]2C[C@@H]2CO)n1)C(=O)OCCCF [unlabeled compound of formula (I)]
Ki: > 10 µM
